Two compounds from PubChem BioAssay (NCI) can be followed below.

Among the test systems are DLD-1 colon; DMS 114 small cell lung; HOP-18 NSCLC; KM20L2 colon; LXFL 529 NSCLC; M19-MEL melanoma; MDA-N; RXF-631 renal; XF 498 CNS.
Holding throughout (experiment): NCI-60 cell line screen, 48 h

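A five-concentration, 48-hour dose response in 96-well plates underlies each endpoint, interpolated linearly between surrounding concentrations. TGI denotes the concentration required for complete inhibition of growth.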

On to `C=C1C(=O)O[C@@H]2C[C@@H](C)[C@@H]3C=CC(=O)[C@@]3(C)[C@@H](OC(=O)CC(=O)O[C@H]3[C@@H]4C(=C)C(=O)O[C@@H]4C[C@@H](C)[C@@H]4C=CC(=O)[C@]43C)[C@H]12`, for which the TGI was less than 0.0215 µM in the test with DLD-1 colon; 0.108 µM in the test with DMS 114 small cell lung; 0.365 µM in the test with HOP-18 NSCLC; 0.237 µM with KM20L2 colon; 0.0343 µM with LXFL 529 NSCLC; 0.0376 µM in the test on M19-MEL melanoma. The TGI stood at 10.2 µM in the test on MDA-N, 0.455 µM in the test on RXF-631 renal and 0.05 µM in the test on XF 498 CNS.
Consider `C#Cc1cccc(N2C(=O)CCC2=O)c1`, for which the TGI in the test on DLD-1 colon was 50.1 µM; with DMS 114 small cell lung, 21.8 µM; in the test on HOP-18 NSCLC, 34.3 µM; in the test on KM20L2 colon, 59 µM; in the test with LXFL 529 NSCLC, 15.8 µM; in the test on M19-MEL melanoma it was 35.3 µM. In addition, the TGI in the test on MDA-N turned out to be 28.7 µM; in the test with RXF-631 renal, 41.1 µM; in the test with XF 498 CNS it was 29 µM.
